Data on 47 compounds can be found in ChEMBL document CHEMBL5331078, “1-Benzyloxy-5-phenyltetrazole derivatives highly active against androgen receptor-dependent prostate cancer cells” (Eur J Med Chem, 2023).

Bounds are passed on as bounds.

In one data set the test system is CWR22R. Put plainly: Antiproliferative activity against AR-v7 positive human 22Rv1 cells measured after 3 days by celltiter-glo luminescence assay. In kind it is functional, cell-based.
Data set [1] can be described thus: Antiproliferative activity against Ar-luc mouse Adipose stromal cell measured after 3 days by celltiter-glo luminescence assay. To be noted: Ar-luc mouse adipose stromal cells. In kind it is toxicity, cell-based. Background: In ATP-based viability assays light output follows the ATP content of the culture.
A further data set deals with PC-3. Put plainly: Antiproliferative activity against human PC-3 cells measured after 3 days by celltiter-glo luminescence assay. In kind it is functional, cell-based. The following applies: PC-3, 72 h.
Data set [2] is described as follows: Metabolic stability in mouse liver microsomes assessed as intrinsic clearance incubated for 60 mins in presence of NADPH-regenerating system. In kind it is ADME, Microsome. The following applies: microsomes, 1 h. In general terms: Liver microsomes are vesicles of endoplasmic reticulum, rich in cytochrome P450 enzymes.
Data set [3] can be described thus: Kinetic solubility of the compound in 0.01 M HCl at pH 2 after 30 mins by nephelometry. It counts as physicochemical. The following applies: read-out: Kinetic_solubility.
A short description of data set [4]: Partition coefficient, logD of the compound at pH 7.4 by HPLC analysis. In kind it is physicochemical. To be noted: octanol/water.
Data set [5] can be described thus: Metabolic stability in mouse liver microsomes assessed as half life incubated for 60 mins in presence of NADPH-regenerating system. It counts as ADME, Microsome. The following applies: microsomes, 1 h.
The nature of data set [6]: Kinetic solubility of the compound in phosphate buffer at pH 6.5 after 30 mins by nephelometry. It counts as physicochemical. The following applies: read-out: Kinetic_solubility.
The next data set deals with T1, Papain (Carica papaya, UniProt P00784).
T1 sequence (P00784 whole entry): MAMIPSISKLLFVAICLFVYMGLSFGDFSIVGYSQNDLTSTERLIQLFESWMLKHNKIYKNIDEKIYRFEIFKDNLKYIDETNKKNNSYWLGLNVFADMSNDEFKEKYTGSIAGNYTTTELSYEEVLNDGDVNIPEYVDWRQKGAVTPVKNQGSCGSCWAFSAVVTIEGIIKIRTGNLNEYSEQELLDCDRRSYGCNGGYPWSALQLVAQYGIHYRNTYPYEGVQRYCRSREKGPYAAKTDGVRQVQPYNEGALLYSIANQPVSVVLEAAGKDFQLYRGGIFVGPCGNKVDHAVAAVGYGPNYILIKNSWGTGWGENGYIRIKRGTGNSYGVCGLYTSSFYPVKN
Kind of data set: Inhibition of papaya papain protease activity assessed as covalent binding mode of action at 10 uM incubated for 30 mins by absorbance based analysis. The following applies: 0.5 h.

Where [7] appears, read: Homo sapiens, 22Rv1, 72 h, read-out: IC50.

As usually defined, the IC50 is the concentration at which inhibition is half-maximal. For orientation: logD means lipophilicity at a set pH, counting ionised and neutral species. High values mean a more lipophilic compound, low ones a more hydrophilic compound.

For `CC(C)(c1ccc(Cl)cc1)n1nnnc1-c1ccc(Cl)cc1`, the IC50 with CWR22R (setting [7]) is above 10 µM.
Regarding `Fc1ccc(-c2nnnn2OCc2ccc(Cl)s2)cc1`, the IC50 is 3.75 µM in the data set on CWR22R (setting [7]) and above 100 µM in the data set on PC-3. This compound also showed an IC50 at 3 days in data set [1] above 100 µM.
Regarding `FC(F)(F)c1cccc(COn2nnnc2-c2cccc(C(F)(F)F)c2)c1`, the IC50 with CWR22R (setting [7]) and with PC-3 was above 10 µM each time.
In the case of `Clc1ccc(COn2nnnc2-c2cccnc2)cc1`, the IC50 result in the data set on CWR22R (cwr22r) is given as “Not Active”.
On to `Clc1ccc(-c2nnnn2OCc2ccc(Cl)c(Cl)c2)cc1`, for which the IC50 with CWR22R (setting [7]) is 0.1 µM; in the data set on PC-3, above 60 µM. The same compound registered an IC50 at 3 days in [1] above 60 µM.
For `Clc1ccc(-c2nnnn2OCc2cccc(Cl)c2)cc1`, the IC50 in the data set with CWR22R (setting [7]) was found to be 0.073 µM; with PC-3 it was 6.79 µM. The compound further registered an IC50 at 3 days in [1] above 60 µM. Moreover, the CLH in data set [2] is 147 µL/min/mg. The solubility kinetic at 0.5 h in [3] and in data set [6] was below 1.6 µg/mL throughout. This compound yielded a logD in [4] of 4.5. The t1/2 in data set [5] is 2.45 h.
As for `COc1ccc(COn2nnnc2-c2ccc(Cl)cc2)cc1`, the IC50 in the data set with CWR22R (setting [7]) and in the data set on PC-3 was above 10 µM each time.
For the compound `Clc1cccc(COn2nnnc2-c2cccnc2)c1`, the IC50 in the data set with CWR22R (setting [7]) was 3.55 µM; in the data set with PC-3 it was above 10 µM.
Take `Clc1ccc(-c2nnnn2OCc2ccc(Cl)nc2)cc1`: the IC50 in the data set with CWR22R (setting [7]) was 0.391 µM; in the data set on PC-3, above 100 µM. The IC50 at 3 days in [1] worked out at 3 µM.
In the case of `COc1ccc(COn2nnnc2-c2ccc(OC)cc2)cc1`, the results for the IC50 in the data set with CWR22R (setting [7]) and with PC-3 were 9.1 µM and above 10 µM, respectively.
The corresponding values for `Fc1ccc(-c2nnnn2OC(F)(F)c2ccc(Cl)cc2)cc1` are above 10 µM and above 10 µM.
The corresponding values for `Clc1ccc(-c2nnnn2OCc2ccccc2)cc1` are 0.04 µM and 0.566 µM.
As for `Clc1ccc(-c2nnnn2OCc2ccnc(Cl)c2)cc1`, the IC50 in the data set on CWR22R (setting [7]) came out at 0.022 µM; in the data set with PC-3, 14.2 µM. For the same compound, the IC50 at 3 days in data set [1] is 7 µM.
On to `Fc1ccc(-c2nnnn2OCc2ccc(Cl)cc2)cc1`, for which the values for the concentration for half-maximal inhibition (IC50) with CWR22R (setting [7]) and in the data set on PC-3 were 0.74 µM and 47.4 µM, respectively. In data set [1], this compound yielded an IC50 at 3 days above 100 µM. Further, the “inhibition (INH)” value at Papain was “Not Active”.
Consider `Clc1ccc(-c2nnnn2OCC2CC2)cc1`, for which the IC50 with CWR22R (setting [7]) and in the data set on PC-3 was above 10 µM throughout.
For `FC(F)(F)c1cccc(COn2nnnc2-c2ccc(Cl)cc2)c1`, the IC50 in the data set on CWR22R (setting [7]) was 0.261 µM; with PC-3 it was 16.8 µM. In data set [1], this compound gave an IC50 at 3 days of 4.9 µM.
In the case of `Fc1ccc(-c2nnnn2OCCc2ccc(Cl)cc2)cc1`, the IC50 in the data set on CWR22R (setting [7]) is above 10 µM.
Turning to `Clc1ccc(On2nnnc2-c2ccc(Cl)cc2)cc1`, the IC50 with CWR22R (setting [7]) and in the data set with PC-3 was above 10 µM throughout.
Regarding `Cc1nn(C)c(Cl)c1-c1nnnn1OCc1ccc(Cl)cc1`, the IC50 entry in the data set with CWR22R (cwr22r) is given as “Not Active”.
In the case of `Fc1cccc(COn2nnnc2-c2ccc(Cl)cc2)c1`, the values for the IC50 with CWR22R (setting [7]) and in the data set with PC-3 were 0.012 µM and above 100 µM, respectively. In [1], this compound had an IC50 at 3 days of 2.6 µM.
For `Cc1nn(C)c(Cl)c1-c1nnnn1OCc1cccc(Cl)c1`, the IC50 result with CWR22R (cwr22r) was “Not Active”.
`Clc1ccc(COn2nnnc2-c2ccc(Cl)cc2Cl)cc1`: the IC50 in the data set with CWR22R (setting [7]) was 3.79 µM; with PC-3, above 100 µM. In data set [1], this compound had an IC50 at 3 days above 100 µM.
As for `Clc1ccc(-c2nnnn2OCc2cccc(Br)c2)cc1`, the IC50 was 0.066 µM in the data set with CWR22R (setting [7]) and above 100 µM in the data set with PC-3. The compound further registered an IC50 at 3 days in data set [1] above 100 µM.
Take `COc1ccc(-c2nnnn2OCc2ccc(Cl)cc2)cc1`: the IC50 worked out at 0.025 µM in the data set with CWR22R (setting [7]) and 30.2 µM in the data set with PC-3. This compound displayed an IC50 at 3 days in data set [1] of 22.9 µM.
Take `Fc1ccc(CO/N=C\c2ccc(Cl)cc2)cc1`: the IC50 in the data set on CWR22R (setting [7]) and in the data set on PC-3 was above 10 µM throughout.
On to `Clc1cccc(COn2nnnc2-c2cccc(Cl)c2)c1`, for which the results for the IC50 with CWR22R (setting [7]) and in the data set on PC-3 were 0.036 µM and above 100 µM, respectively. The compound also registered an IC50 at 3 days in [1] of 10.6 µM.
In the case of `Fc1ccc(COn2nnnc2-c2ccc(Cl)cc2)cc1`, the IC50 with CWR22R (setting [7]) amounted to 0.031 µM; with PC-3, 25.7 µM. The IC50 at 3 days in data set [1] came out at 5.4 µM.
In the case of `Clc1ccc(CCOn2nnnc2-c2ccc(Cl)cc2)cc1`, the IC50 with CWR22R (setting [7]) is above 10 µM.
As to `Clc1ccc(-c2nnnn2OCc2ccc(Cl)s2)cc1`, the figures for the concentration for half-maximal inhibition (IC50) with CWR22R (setting [7]) and with PC-3 were 0.131 µM and above 100 µM, respectively. Besides, the concentration for half-maximal inhibition (IC50) at 3 days in [1] was above 60 µM.
The corresponding values for `Clc1ccc(-c2nnnn2OCc2ccc(Br)cc2)cc1` are 0.023 µM, 52.1 µM and 13.8 µM.
Turning to `O=C(Nn1nnnc1-c1ccccc1)c1ccc(Cl)cc1`, the IC50 in the data set on CWR22R (setting [7]) is above 10 µM.
As for `CC(C)(On1nnnc1-c1ccc(Cl)cc1)c1ccc(Cl)cc1`, in the data set on CWR22R (setting [7]), the IC50 is above 10 µM.
Turning to `CC(On1nnnc1-c1ccc(Cl)cc1)c1ccc(Cl)cc1` (stereo not drawn), the IC50 was 1.71 µM in the data set on CWR22R (setting [7]) and above 10 µM in the data set on PC-3.
`Fc1ccc(On2nnnc2-c2ccc(Cl)cc2)cc1`: the IC50 with CWR22R (setting [7]) and in the data set with PC-3 was above 10 µM each time.
For `Fc1ccc(-c2nnnn2OCc2ccnc(Cl)c2)cc1`, the IC50 was 0.5 µM in the data set on CWR22R (setting [7]) and above 100 µM in the data set on PC-3. In addition, the IC50 at 3 days in [1] came to 15 µM.
The corresponding values for `Clc1cccc(COn2nnnc2-c2ccc(Cl)cc2Cl)c1` are 0.4 µM, above 100 µM and above 100 µM.
For `Clc1ccc(/C=N\OCc2ccc(Cl)cc2)cc1`, the IC50 in the data set with CWR22R (setting [7]) and in the data set with PC-3 was above 10 µM in each case.
As to `COc1ccc(-c2nnnn2OC(F)(F)c2ccccc2)cc1`, the IC50 with CWR22R (setting [7]) is 5.41 µM; with PC-3, above 10 µM.
In the case of `COc1ccc(-c2nnnn2OCc2cccc(Cl)c2)cc1`, the IC50 with CWR22R (setting [7]) was 0.023 µM; in the data set on PC-3, above 100 µM. Also, the IC50 at 3 days in [1] was found to be 6.8 µM.
With `Clc1ccc(CCn2nnnc2-c2ccc(Cl)cc2)cc1`, the IC50 in the data set on CWR22R (setting [7]) is above 10 µM.
For `Fc1ccc(-c2nnnn2OCc2cccc(Cl)c2)cc1`, the IC50 in the data set with CWR22R (setting [7]) was 0.076 µM; with PC-3, above 100 µM. In addition, the IC50 at 3 days in data set [1] was above 60 µM.
With `Clc1ccc(-c2nnnn2OCC2CCCCC2)cc1`, the IC50 in the data set with CWR22R (setting [7]) and in the data set with PC-3 was above 10 µM each time.
For the compound `CNC(=O)c1ccc(N2C(=S)N(c3ccc(C#N)c(C(F)(F)F)c3)C(=O)C2(C)C)cc1F` [ENZALUTAMIDE], the concentration for half-maximal inhibition (IC50) in the data set on CWR22R (setting [7]) came to 36 µM; in the data set with PC-3 it was 42 µM.
In the case of `Fc1ccc(-c2nnnn2OCc2ccc(Cl)c(Cl)c2)cc1`, the IC50 is 0.066 µM with CWR22R (setting [7]) and above 100 µM with PC-3. This compound also had an IC50 at 3 days in data set [1] of 23.4 µM.
For `Fc1ccc(On2nnnc2-c2ccc(F)cc2)cc1`, the IC50 in the data set with CWR22R (setting [7]) and in the data set with PC-3 was above 10 µM throughout.
In the case of `FC(F)(On1nnnc1-c1ccc(Cl)cc1)c1ccccc1`, the IC50 in the data set with CWR22R (setting [7]) and in the data set with PC-3 was above 10 µM throughout. Further, the “inhibition (INH)” value at Papain was “Not Active”.
For `Clc1ccc(COn2nnnc2-c2cccc(Cl)c2)cc1`, the IC50 with CWR22R (setting [7]) was 2.03 µM; with PC-3, above 100 µM. The IC50 at 3 days in [1] stood at 36.3 µM.
